These results are taken from patent US5159081A, “Intermediates of peripherally selective N-carbonyl-3,4,4-trisubstituted piperidine opioid antagonists” (Eli Lilly and Company, priority 1991, dated 1992).

The target in assay [1] is T1, opioid receptor (Mus musculus, UniProt P42866).
T1 construct: Five CF-1 male mice (Charles River, Portage, MI); from tissue; host or cells: living CF-1 male mice (whole animal, endogenous receptor)
The experiment in a line: in vivo. The following applies: sc, mouse writhing test, s.c. 20 min before acetic acid, read-out: AD50 (the source's name). More on the design: species or system CF-1 male mice.

For assay [2], the system named is peripheral opioid receptors. The assay is described as follows: mouse diarrhea test: precipitated diarrhea in morphine-maintained mice (peripheral opioid activity). It counts as in vivo. The following applies: AD50 mouse writhing / ED50 mouse diarrhea; higher = greater relative peripheral antagonism.
Assay [3] deals with T2, mu receptor (Rattus norvegicus, UniProt P33535).
T2 construct: The brain tissue, rat whole brain minus cerebellum for mu was homogenized; from tissue; host or cells: brain minus cerebellum of male Sprague Dawley rats, homogenate fraction
T2 sequence (P33535 whole entry): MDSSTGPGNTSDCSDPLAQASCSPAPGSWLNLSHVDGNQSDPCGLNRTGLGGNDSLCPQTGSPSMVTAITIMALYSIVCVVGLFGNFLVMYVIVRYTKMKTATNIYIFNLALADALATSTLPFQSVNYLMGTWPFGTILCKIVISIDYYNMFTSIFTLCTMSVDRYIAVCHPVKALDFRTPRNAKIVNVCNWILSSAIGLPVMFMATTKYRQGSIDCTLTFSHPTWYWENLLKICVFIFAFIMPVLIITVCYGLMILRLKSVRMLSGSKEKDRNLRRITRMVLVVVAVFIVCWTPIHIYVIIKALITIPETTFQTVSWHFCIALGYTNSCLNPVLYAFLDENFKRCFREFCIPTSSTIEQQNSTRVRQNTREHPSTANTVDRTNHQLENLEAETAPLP
The assay is described as follows: Naloxone [3H] opioid receptor binding assay (mu receptor). Set-up: species or system rat (male Sprague Dawley). The following applies: 20 min; for Ki: rat whole brain minus cerebellum, pH 7.4, 37° C., read-out: Ki.

Setting [4] is: pH 7.4, read-out: % displacement at 10 nM.
The mark [5] stands for this setting: pH 7.4, read-out: % displacement at 100 nM.
[6] abbreviates: pH 7.4, 100 nM test compound, [3H]naloxone 0.5 nM, […], read-out: % displacement at 100 nM.
The mark [7] stands for this setting: dose of antagonist that reduced inhibition of writhing by 1.25 mg/kg morphine sulfate to 50%.

Structures can show the parent of a compound that is named as a salt. Where two headings read alike, the source gives them in different places.

T1 sequence (P42866 whole entry): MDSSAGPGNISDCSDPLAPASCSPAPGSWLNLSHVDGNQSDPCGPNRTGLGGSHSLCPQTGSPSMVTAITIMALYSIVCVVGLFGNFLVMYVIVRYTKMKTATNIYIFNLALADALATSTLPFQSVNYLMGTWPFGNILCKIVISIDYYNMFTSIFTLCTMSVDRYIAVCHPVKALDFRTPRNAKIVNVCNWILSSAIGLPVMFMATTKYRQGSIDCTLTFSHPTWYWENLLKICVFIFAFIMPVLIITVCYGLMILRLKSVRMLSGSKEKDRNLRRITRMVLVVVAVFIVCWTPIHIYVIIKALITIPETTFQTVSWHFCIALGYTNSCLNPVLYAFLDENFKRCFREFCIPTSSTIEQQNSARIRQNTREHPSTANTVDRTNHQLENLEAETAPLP

With `COC(=O)[C@H](Cc1ccccc1)NC(=O)CCC(=O)N(CCN1CCC(C)(c2cccc(O)c2)C(C)C1)C1CCCCC1` (stereo partly drawn) [Example 41, 2-((1,4-dioxo-4-(cyclohexyl-(2-(trans-4-(3-hydroxyphenyl)-3,4-dimethyl-1-piperidinyl)ethyl)amino)butyl)-amino)-3-phenylpropanoic acid, methyl ester], the ED50 in assay [1] ([…]) was determined as 32 mg/kg. Also, the “Ratio (ratio of AD50 to ED50)” value in assay [2] was determined as 74. For the same compound, the inhibition at 0.01 µM in assay [3] (setting [4]) came out at 87%. Moreover, the inhibition at 0.1 µM in assay [3] (setting [5]) was 99%. Moreover, the Ki in assay [3] ([…], [3H]naloxone 0.5 nM) worked out at 2.45 nM.
As for `CCOC(=O)CCCC(=O)N(CCCN1CC[C@@](C)(c2cccc(O)c2)[C@@H](C)C1)C1CCCCC1` (relative stereo) [Example 33, 5-(Cyclohexyl-(3-(trans-4-(3-hydroxyphenyl)-3,4-dimethyl-1-piperidinyl)propyl)amino)-5-oxopentanoic acid ethyl ester monohydrochloride], in assay [1] ([…]), the ED50 is 3.67 mg/kg. Also, the “Ratio (ratio of AD50 to ED50)” value in assay [2] was 122. In addition, the inhibition at 0.1 µM in assay [3] (setting [5]) was determined as 99%. In addition, in assay [3] (pH 7.4, 10 nM test compound, [3H]naloxone 0.5 nM, […], read-out: % displacement at 10 nM), the inhibition at 0.01 µM came out at 83%. Besides, in assay [3] ([…], [3H]naloxone 0.5 nM), the Ki was 0.26 nM.
As to `CNC(=O)CNC(=O)CC(=O)N(CCN1CC[C@@](C)(c2cccc(O)c2)[C@@H](C)C1)C1CCCCC1` (relative stereo) [Example 38, N-cyclohexyl-N-(2-(trans-4-(3-hydroxyphenyl)-3,4-dimethyl-1-piperidinyl)ethyl)-N'-(2-(methylamino)-2-oxoethyl)propanediamide monohydrochloride], in assay [1] ([…]), the ED50 stood at 28.9 mg/kg. In addition, the “Ratio (ratio of AD50 to ED50)” value in assay [2] is recorded as 1605. The inhibition at 0.01 µM in assay [3] (setting [4]) was 79%. Moreover, the inhibition at 0.1 µM in assay [3] (setting [6]) stood at 98%. Moreover, the Ki in assay [3] ([…], [3H]naloxone 0.5 nM) came out at 2.98 nM.
On to `C[C@H]1CN(CCN(CC2CCCCC2)C(=O)CCC(=O)O)CC[C@@]1(C)c1cccc(O)c1` (relative stereo) [Example 26, 4-(cyclohexylmethyl-(2-(trans-4-(3-hydroxyphenyl)-3,4-dimethyl-1-piperidinyl)ethyl)amino)-4-oxobutanoic acid monohydrate], for which the ED50 in assay [1] ([…]) was found to be 3.6 mg/kg. In assay [2], the “Ratio (ratio of AD50 to ED50)” value is 72. Also, the inhibition at 0.01 µM in assay [3] (setting [4]) stood at 73%. For the same compound, the inhibition at 0.1 µM in assay [3] (setting [5]) turned out to be 100%. Further, the Ki in assay [3] ([…], [3H]naloxone 0.5 nM) worked out at 1.91 nM.
`C[C@H]1CN(CCN(C(=O)CCC(N)=O)C2CCCCC2)CC[C@@]1(C)c1cccc(O)c1` (relative stereo) [Example 35, N-Cyclohexyl-N-(2-(trans-4-(3-hydroxyphenyl)-3,4-dimethyl-1-piperidinyl)ethyl)butanediamide monohydrochloride]: the ED50 in assay [1] (setting [7]) was more than 1.25 mg/kg. For the same compound, in assay [2], the “Ratio (ratio of AD50 to ED50)” value was more than 3. For the same compound, in assay [3] (setting [4]), the inhibition at 0.01 µM is 80%. The inhibition at 0.1 µM in assay [3] (setting [5]) worked out at 99%. Moreover, the Ki in assay [3] ([…], [3H]naloxone 0.5 nM) is 2.15 nM.
Regarding `C[C@H]1CN(CCC(CC2CCCCC2)NC(=O)CCCC(=O)O)CC[C@@]1(C)c1cccc(O)c1` (stereo in doubt) [Example 7, 5-((1-(cyclohexylmethyl)-3-(trans-4-(3-hydroxyphenyl)-3,4-dimethyl-1-piperidinyl)propyl)amino)-5-oxopentanoic acid monohydrochloride monohydrate], the ED50 in assay [1] ([…]) is 8.62 mg/kg. The “Ratio (ratio of AD50 to ED50)” value in assay [2] was determined as 19. Besides, the inhibition at 0.01 µM in assay [3] (setting [4]) was 99%. The inhibition at 0.1 µM in assay [3] (setting [5]) was 100%. Also, the Ki in assay [3] ([…], [3H]naloxone 0.5 nM) was found to be 0.63 nM.
Take `C[C@H]1CN(CCN(C(=O)CCC(=O)O)C2CCCCC2)CC[C@@]1(C)c1cccc(O)c1` (relative stereo) [Example 22, 4-(Cyclohexyl-(2-(trans-4-(3-hydroxyphenyl)-3,4-dimethyl-1-piperidinyl)ethyl)amino)-4-oxobutanoic acid monohydrate]: the ED50 in assay [1] (setting [7]) was 1.25 mg/kg. For the same compound, in assay [2], the “Ratio (ratio of AD50 to ED50)” value was 63. Also, the inhibition at 0.01 µM in assay [3] (setting [4]) came to 51%. The inhibition at 0.1 µM in assay [3] (setting [5]) was 93%. Besides, the Ki in assay [3] ([…], [3H]naloxone 0.5 nM) was found to be 3.59 nM.
As to `CCCOC(=O)CCC(=O)N(CCN1CC[C@@](C)(c2cccc(O)c2)[C@@H](C)C1)C1CCCCC1` (relative stereo) [Example 31, 4-(Cyclohexyl-(2-(trans-4-(3-hydroxyphenyl)-3,4-dimethyl-1-piperidinyl)ethyl)amino)-4-oxobutanoic acid propyl ester], the ED50 in assay [1] ([…]) is more than 40 mg/kg. Further, the “Ratio (ratio of AD50 to ED50)” value in assay [2] is more than 200. Also, in assay [3] (setting [4]), the inhibition at 0.01 µM was 82%. Besides, the inhibition at 0.1 µM in assay [3] (setting [6]) stood at 97%. Further, in assay [3] ([…], [3H]naloxone 0.5 nM), the Ki came to 2.52 nM.
Take `C[C@H]1CN(CCN(C(=O)CCCC(=O)O)C2CCCCC2)CC[C@@]1(C)c1cccc(O)c1` (relative stereo) [Example 23, 5-(Cyclohexyl-(2-(trans-4-(3-hydroxyphenyl)-3,4-dimethyl-1-piperidinyl)ethyl)amino)-5-oxopentanoic acid monohydrate]: the ED50 in assay [1] (setting [7]) was more than 1.25 mg/kg. In addition, in assay [2], the “Ratio (ratio of AD50 to ED50)” value is on record as more than 5. Besides, the inhibition at 0.01 µM in assay [3] (setting [4]) was 77%. Moreover, the inhibition at 0.1 µM in assay [3] (setting [5]) turned out to be 100%. For the same compound, the Ki in assay [3] ([…], [3H]naloxone 0.5 nM) was 4.38 nM.
As to `C[C@H]1CN(CCC(NC(=O)CCCC(=O)O)C2CCCCC2)CC[C@@]1(C)c1cccc(O)c1` (stereo in doubt) [Example 5, 5-((3-(trans-4-(3-hydroxyphenyl)-3,4-dimethyl-1-piperidinyl)-1-cyclohexylpropyl)amino)-5-oxo-pentanoic acid monohydrochloride monohydrate], the ED50 in assay [1] ([…]) is more than 20 mg/kg. The “Ratio (ratio of AD50 to ED50)” value in assay [2] is listed as more than 1666. For the same compound, in assay [3] (setting [4]), the inhibition at 0.01 µM came out at 100%. Besides, in assay [3] (setting [5]), the inhibition at 0.1 µM was 100%. The inhibition constant Ki in assay [3] ([…], [3H]naloxone 0.5 nM) was found to be 0.3 nM.
Take `CC(=O)NC(CCN1CC[C@@](C)(c2cccc(O)c2)[C@@H](C)C1)c1ccccc1` (stereo in doubt) [Example 6, N-(3-(trans-4-(3-hydroxyphenyl)-3,4-dimethyl-1-piperidinyl)-1-phenylpropyl)acetamide]: the ED50 in assay [1] ([…]) amounted to 30 mg/kg. Besides, the “Ratio (ratio of AD50 to ED50)” value in assay [2] turned out to be 428. Also, the inhibition at 0.01 µM in assay [3] (setting [4]) was determined as 82%. Further, in assay [3] (setting [5]), the inhibition at 0.1 µM is 94%. Further, in assay [3] ([…], [3H]naloxone 0.5 nM), the inhibition constant Ki was 6.49 nM.
For `CCOC(=O)CCCC(=O)NC(CCN1CC[C@@](C)(c2cccc(O)c2)[C@@H](C)C1)CC(C)C` (stereo in doubt) [Example 3B, 5-((1-(2-(trans-4-(3-hydroxyphenyl)-3,4-dimethyl-1-piperidinyl)ethyl)-3-methylbutyl)amino)-5-oxopentanoic acid ethyl ester monohydrochloride], in assay [1] ([…]), the ED50 worked out at 15.5 mg/kg. Further, in assay [2], the “Ratio (ratio of AD50 to ED50)” value is 111. For the same compound, the inhibition at 0.01 µM in assay [3] (setting [4]) turned out to be 93%. Moreover, the inhibition at 0.1 µM in assay [3] (setting [5]) was found to be 99%. Further, the Ki in assay [3] ([…], [3H]naloxone 0.5 nM) was found to be 0.86 nM.
For `C[C@H]1CN(CCCN(C(=O)CCCC(N)=O)C2CCCCC2)CC[C@@]1(C)c1cccc(O)c1` (relative stereo) [Example 37, N-(3-(trans-4-(3-hydroxyphenyl)-3,4-dimethyl-1-piperidinyl)propyl)-N-cyclohexylpentanediamide monohydrochloride monohydrate], the ED50 in assay [1] ([…]) stood at 12.8 mg/kg. In assay [2], the “Ratio (ratio of AD50 to ED50)” value stood at 256. Also, the inhibition at 0.01 µM in assay [3] (setting [4]) was 88%. For the same compound, the inhibition at 0.1 µM in assay [3] (setting [5]) was 100%. In addition, the Ki in assay [3] ([…], [3H]naloxone 0.5 nM) worked out at 0.61 nM.
For the compound `CC(=O)OC(C)OC(=O)CCCC(=O)N[C@@H](CC1CCCCC1)CN1CC[C@@](C)(c2cccc(O)c2)[C@@H](C)C1` (stereo partly shown) [Example 67], the ED50 in assay [1] ([…]) is more than 40 mg/kg. For the same compound, in assay [3] (pH 7.4, 10 nM test compound, [3H]naloxone 0.5 nM, mu receptor, read-out: % displacement at 10 nM), the inhibition at 0.01 µM is 73%. The inhibition at 0.1 µM in assay [3] (pH 7.4, 100 nM test compound, [3H]naloxone 0.5 nM, mu receptor, read-out: % displacement at 100 nM) came to 95%.
As for `CCOC(=O)CCCC(=O)NC(CCN1CC[C@@](C)(c2cccc(O)c2)[C@@H](C)C1)CC(C)C` (single isomer, unassigned) [Example 3A, 5-((1-(2-(trans-4-(3-hydroxyphenyl)-3,4-dimethyl-1-piperidinyl)ethyl)-3-methylbutyl)amino)-5-oxopentanoic acid ethyl ester monohydrochloride], in assay [1] ([…]), the ED50 was determined as 14.2 mg/kg. For the same compound, in assay [2], the “Ratio (ratio of AD50 to ED50)” value was 89. For the same compound, in assay [3] (setting [4]), the inhibition at 0.01 µM was found to be 100%. Further, in assay [3] (setting [5]), the inhibition at 0.1 µM came to 100%. In assay [3] ([…], [3H]naloxone 0.5 nM), the Ki was found to be 0.3 nM.
Consider `C[C@H]1CN(CCCN(CC2CCCCC2)C(=O)CCCC(=O)O)CC[C@@]1(C)c1cccc(O)c1` (relative stereo) [Example 27, Trans-5-(cyclohexylmethyl(3-(4-(3-hydroxyphenyl)-3,4-dimethyl-1-piperidinyl)propyl)amino)-5-oxopentanoic acid monohydrate], for which the ED50 in assay [1] ([…]) came out at 11 mg/kg. In addition, the “Ratio (ratio of AD50 to ED50)” value in assay [2] came out at 61. The inhibition at 0.01 µM in assay [3] (setting [4]) is 63%. In assay [3] (setting [5]), the inhibition at 0.1 µM came to 93%. In assay [3] ([…], [3H]naloxone 0.5 nM), the Ki is 8 nM.
As to `C[C@H]1CN(C[C@H](CC2CCCCC2)NC(=O)CCCC(=O)OCC(=O)N(C)C)CC[C@@]1(C)c1cccc(O)c1` [Example 64], the ED50 in assay [1] ([…]) worked out at 13.5 mg/kg. In assay [3] (setting [4]), the inhibition at 0.01 µM was found to be 81%. The inhibition at 0.1 µM in assay [3] (setting [5]) came to 94%. For the same compound, the Ki in assay [3] ([…], [3H]naloxone 0.5 nM) came out at 1.51 nM.
`CCOC(=O)CCCC(=O)N[C@@H](CC1CCCCC1)CN1CC[C@](C)(c2cccc(O)c2)[C@H](C)C1` [Example 51]: the ED50 in assay [1] ([…]) was more than 40 mg/kg. In addition, in assay [3] (setting [4]), the inhibition at 0.01 µM stood at 73%. Moreover, in assay [3] (setting [5]), the inhibition at 0.1 µM is 97%.
